Test results from patent US9815774B1, “Hydrodabcyl” (Universität Bayreuth, priority 2014, dated 2017).
Converted amounts (≈) assume the structure as drawn. “And” between values parts separate entries of the source, which are not always exact repeats. Equal values may be shown once. Read-outs that look alike come from different tables or passages of the source. Values belong to the molecule of their own block, whether it stands above or below them.

Columns and labels:
[1] = water, reported [8]; cited from earlier work
[2] = Solubility tests in water and buffered aqueous solutions; assay type: physicochemical; details: for appearance in water: about 7 μM
[3] = Stability under light exposure; assay type: physicochemical; details: for effect of light exposure on absorption spectrum: 17.5 μM in DMSO, 5 minutes, 60 W tungsten lamp; for absorbance under 2-hour continuous irradiation at absorption maximum: spectrophotometer beam, 7200 s
Procedure: The effect of exposure to the light beam of a commercial spectrophotometer was tested to mimic the common experimental condition.
One solution of dabcyl and one of Hydrodabcyl, both at 17.5 μM in DMSO prepared in the dark, were exposed for 5 minutes to the light of a common 60 W tungsten lamp.

[4] = Solubility tests in water and buffered aqueous solutions; assay type: physicochemical; details: for solubility: 50 mM NaP buffer, pH 8.0
Text: The excellent solubility of the bare chromophore in aqueous solution already confers to Hydrodabcyl several practical advantages, e.g., aqueous solutions of Hydrodabcyl are easier to prepare and glassware can be more readily cleansed. Nevertheless, in most of applications the chromophores are linked to the molecules of interest. For example, to monitor protease activity chromophores are usually linked to the peptidic substrate. Both dabcyl and Hydrodabcyl can be easily coupled to an amino group through a standard amide bond formation. […] To investigate the behavior of dabcyl and Hydrodabcyl coupled to an amino acid bearing an amino group, dabcyl and Hydrodabcyl were linked to the amino group of a Lys side chain, and the solubility of the Lys-dabcyl and Lys-Hydrodabcyl moieties in a buffered aqueous solution at pH 8 were tested.
Buffered solutions (50 mM sodium phosphate) have been prepared at four different pH: 8.0, 7.0, 6.0 and 5.5, respectively. The amount of Hydrodabcyl required to reach a concentration of 5 mM was immersed in each buffer solution and kept for 1 h at 30° C. in an ultrasonic bath. […] To confirm its solubility, the absorbance of Hydrodabcyl was monitored as function of its concentration. Since the stock solution was too concentrated to be measured directly, three diluted solutions with different concentrations (10 μM, 20 μM and 30 μM) were prepared from each stock solution at pH 8.0, pH 7.0 and pH 6.0. The aliquots have been taken from different part of the volume of the stock solution to test the homogeneity.
To reach complete solubility at pH<6.0, the pH of the stock solution (5 mM range) at pH 7.0 was decreased at the desired value with few drops of 5M HCl. Following gradual acidification of the medium the mM solution of Hydrodabcyl remained clear till pH 4.3. […] At pH<4.3 Hydrodabcyl precipitates.

[5] = tested on: circular and linear double-stranded DNA pBR322; assay: Electrophoretic Mobility Shift Assay (EMSA); assay type: binding; details: 24 h incubation, 0, 5, 10, 25, 50 μM, agarose gel
Procedure: The DNA was incubated for 24 hours with various concentrations (0, 5, 10, 25, 50 μM) of (a) doxorubicin and (b) Hydrodabcyl. FIGS. 6a and 6b show the ethidium bromide staining of DNA separated by agarose gel electrophoresis. […] The DNA was incubated for 24 hours with various concentrations (0, 5, 10, 25, 50 μM) of (a) doxorubicin and (b) Hydrodabcyl. FIGS. 7a and 7b show the ethidium bromide staining of DNA separated by agarose gel electrophoresis. […] Circular and linear double-stranded DNA was incubated with various concentrations of Hydrodabcyl and doxorubicin (a known intercalating substance). After 24 h of incubation time, agarose gel electrophoresis was carried out.

[6] = tested on: oocytes of Xenopus laevis; assay: Influence on embryogenesis of injected oocytes; assay type: in vivo; details: conclusion from Table 2
Procedure: Two sorts of labelled molecules were injected into oocytes of Xenopus laevis: • A molecule labelled with monobromobimane (mBBr; a fluorescent dye, which emits light in the absorption spectrum of Hydrodabcyl); the molecule is called Substrate-Bim • A molecule labelled with mBBr and Hydrodabcyl (a fluorescence quencher); the molecule is called Bim-Substrate-Hydrodabcyl The effect on embryogenesis of the molecules injected into the oocytes as described in Example 5 was observed.

[7] = tested on: HT-29; assay: Cytotoxicity assay, HT-29; assay type: cell-based; details: Homo sapiens, incubation for 72 hours, 5 to 100 μM
Procedure: (§1) Three different cell culture types were incubated with various concentrations (from 5 to 100 μM) of Hydrodabcyl.

[8] = Absorption spectra; assay type: physicochemical; details: for ε (molar absorbance): 20° C.
Procedure: Double beam Perkin Elmer Lambda 750 UV/Vis spectrophotometer equipped with a thermostated cuvette holder was used to record the absorption spectra over a wavelength range 200-800 nm at 20° C.
The quartz cuvettes with 1 cm light path used were from Hellma.

[9] = tested on: EaHy.926; assay: Cytotoxicity assay, EaHy.926; assay type: cell-based; details: Homo sapiens, EA.hy 926, incubation for 72 hours, 5 to 100 μM
Procedure: as §1

[10] = tested on: CHF; assay: Cytotoxicity assay, CHF; assay type: cell-based; details: incubation for 72 hours, 5 to 100 μM
Procedure: as §1

[11] = sodium phosphate buffer, aqueous buffer, thermodynamic from solid, read-out: Solubility

SMILES: NCCCC[C@H](N)C(=O)O [L-Lys, reference compound]
solubility [1]: 5.8 g per 1 kg of water
solubility ([2]; water, converted from 5.8 g per 1 kg): about 40 mM

SMILES: CN(C)c1cc(O)c(/N=N/c2ccc(C(=O)O)c(O)c2)c(O)c1 [Hydrodabcyl, 4-((4′-(dimethylamino)2′,6′-dihydroxyphenyl)azo)2-hydroxybenzoic acid]
effect of light exposure on absorption spectrum [3]: no effect on the absorption spectrum
absorbance under 2-hour continuous irradiation at absorption maximum ([3]; DMSO, 20° C.): constant signal
dissolution at 5 mM, direct preparation ([4]; 50 mM sodium phosphate pH 5.5, 1 h at 30° C. ultrasonic bath): not completely soluble
dissolution at 5 mM, direct preparation ([4]; 50 mM sodium phosphate pH 6.0, 1 h at 30° C. ultrasonic bath): Clear solutions
dissolution at 5 mM, direct preparation ([4]; 50 mM sodium phosphate pH 7.0, 1 h at 30° C. ultrasonic bath): Clear solutions
dissolution at 5 mM, direct preparation ([4]; 50 mM sodium phosphate pH 8.0, 1 h at 30° C. ultrasonic bath): Clear solutions
solubility thermodynamic ([4]; aqueous buffer, thermodynamic from solid, buffered aqueous solution at pH 8, read-out: concentration of saturated solution): 25000 µM (≈ 7930 µg/mL)
solubility [4, 11]: 25400 µM (≈ 8060 µg/mL)
shift of DNA bands / intercalation into DNA [5]: does not intercalate or bind to the DNA
influence on embryogenesis [6]: does not influence embryogenesis
IC50 [7]: > 50 µM
ε (molar absorbance) ([8]; 50 mM sodium phosphate buffer pH=8.0, 2×10^−5 M, at 445 nm): 43000 ± 1000 L/mol/cm
λmax ([8]; 2×10^−5 M in DMSO at 20° C.): 470 nm
ε470 (molar absorbance) ([8]; DMSO): 37000 M⁻¹ cm⁻¹
ε (molar absorbance) ([8]; DMSO, 2×10^−5 M, at 470 nm): 37000 ± 1000 L/mol/cm
ε445 (molar absorbance) ([8]; aqueous solution): 43000 M⁻¹ cm⁻¹
λmax ([8]; aqueous solution, 50 mM sodium phosphate buffer pH=8.0, 20° C.): 445 nm
solubility ([2]; thermodynamic from solid, Water, 20° C., pH = 4.5, read-out: Solubility): 571 µM (≈ 181 µg/mL)
appearance in water ([2]; water): clear solution
IC50 [9]: > 50 µM
IC50 [10]: > 100 µM

SMILES: COc1cccc2c1C(=O)c1c(O)c3c(c(O)c1C2=O)C[C@@](O)(C(=O)CO)C[C@@H]3O[C@H]1C[C@H](N)[C@H](O)[C@H](C)O1 [doxorubicin, reference compound]
shift of DNA bands / intercalation into DNA [5]: shift of the DNA bands with increasing doxorubicin concentration

Second part, the molecule after the results:

solubility [4]: 7.6 µM and 7.62 µM
SMILES: CN(C)c1ccc(N=Nc2ccc(C(=O)NCCCCC(N)C(=O)O)cc2)cc1 (stereo not shown) [Lys-dabcyl, reference compound]

effect of light exposure on absorption spectrum [3]: strongly modify the absorption spectrum
absorbance under 2-hour continuous irradiation at absorption maximum ([3]; DMSO, 20° C.): constant signal
time in the dark to recover original spectrum ([3]; after 5 min 60 W tungsten lamp, DMSO, 20° C.): 10 min
solubility [4, 11]: 541 µM (≈ 146 µg/mL)
λmax ([8]; 2×10^−5 M in DMSO at 20° C.): 451 nm
appearance in water ([2]; water): precipitation
SMILES: CN(C)c1ccc(/N=N/c2ccc(C(=O)O)cc2)cc1 [dabcyl, 4-(4′-dimethylamino-phenylazo)benzoic acid]
